Measurements taken from PubChem BioAssay (NCI).
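Assay format: 96-well plates, 48-hour exposure. GI50 = concentration required for 50% inhibition of growth. TGI denotes the concentration required for complete inhibition of growth.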

How the values were obtained:
Assay in all cases: growth of human tumour cells (NCI), 48 h
786-0 renal = tested on: 786-0 renal
A549 NSCLC = tested on: A549 NSCLC
ACHN renal = tested on: ACHN renal
BT-549 breast = tested on: BT-549 breast
CAKI-1 renal = tested on: CAKI-1 renal
CCRF-CEM leukemia = tested on: CCRF-CEM leukemia
COLO 205 colon = tested on: COLO 205 colon
EKVX NSCLC = tested on: EKVX NSCLC
HCC-2998 colon = tested on: HCC-2998 colon
HCT-15 colon = tested on: HCT-15 colon
HL-60(TB) leukemia = tested on: HL-60(TB) leukemia
HOP-62 NSCLC = tested on: HOP-62 NSCLC
HOP-92 NSCLC = tested on: HOP-92 NSCLC
HS 578T breast = tested on: HS 578T breast
HT29 colon = tested on: HT29 colon
IGROV1 ovarian = tested on: IGROV1 ovarian
K-562 leukemia = tested on: K-562 leukemia
KM12 colon = tested on: KM12 colon
LOX IMVI melanoma = tested on: LOX IMVI melanoma
M14 melanoma = tested on: M14 melanoma
MALME-3M melanoma = tested on: MALME-3M melanoma
MCF7 breast = tested on: MCF7 breast
MDA-MB-231 breast = tested on: MDA-MB-231 breast
MDA-MB-435 = tested on: MDA-MB-435
MOLT-4 leukemia = tested on: MOLT-4 leukemia
NCI-H23 lung = tested on: NCI-H23 lung
NCI-H460 lung = tested on: NCI-H460 lung
NCI-H522 lung = tested on: NCI-H522 lung
NCI/ADR-RES ovarian = tested on: NCI/ADR-RES ovarian
OVCAR-3 ovarian = tested on: OVCAR-3 ovarian
OVCAR-4 ovarian = tested on: OVCAR-4 ovarian
OVCAR-5 ovarian = tested on: OVCAR-5 ovarian
OVCAR-8 ovarian = tested on: OVCAR-8 ovarian
PC-3 prostate = tested on: PC-3 prostate
RPMI-8226 leukemia = tested on: RPMI-8226 leukemia
SF-268 CNS = tested on: SF-268 CNS
SF-295 CNS = tested on: SF-295 CNS
SF-539 CNS = tested on: SF-539 CNS
SK-MEL-2 melanoma = tested on: SK-MEL-2 melanoma
SK-MEL-28 melanoma = tested on: SK-MEL-28 melanoma
SK-MEL-5 melanoma = tested on: SK-MEL-5 melanoma
SK-OV-3 ovarian = tested on: SK-OV-3 ovarian
SN12C renal = tested on: SN12C renal
SNB-19 CNS = tested on: SNB-19 CNS
SNB-75 CNS = tested on: SNB-75 CNS
SR leukemia = tested on: SR leukemia
SW-620 colon = tested on: SW-620 colon
T-47D breast = tested on: T-47D breast
TK-10 renal = tested on: TK-10 renal
U251 CNS = tested on: U251 CNS
UACC-257 melanoma = tested on: UACC-257 melanoma
UACC-62 melanoma = tested on: UACC-62 melanoma
UO-31 renal = tested on: UO-31 renal
A498 renal = tested on: A498 renal
DU-145 prostate = tested on: DU-145 prostate
HCT-116 colon = tested on: HCT-116 colon
NCI-H226 lung = tested on: NCI-H226 lung
RXF 393 renal = tested on: RXF 393 renal

SMILES: Clc1ccc(-c2c3nc(c(-c4ccc(Cl)cc4)c4ccc([nH]4)c(-c4ccc(Cl)cc4)c4nc(c(-c5ccc(Cl)cc5)c5ccc2[nH]5)C=C4)C=C3)cc1
- TGI (786-0 renal): > 100 µM
- TGI (A549 NSCLC): > 100 µM
- TGI (ACHN renal): > 100 µM
- TGI (BT-549 breast): > 100 µM
- TGI (CAKI-1 renal): > 100 µM
- TGI (CCRF-CEM leukemia): > 100 µM
- TGI (COLO 205 colon): > 100 µM
- TGI (EKVX NSCLC): > 100 µM
- TGI (HCC-2998 colon): > 100 µM
- TGI (HCT-15 colon): > 100 µM
- TGI (HL-60(TB) leukemia): > 100 µM
- TGI (HOP-62 NSCLC): > 100 µM
- TGI (HOP-92 NSCLC): > 100 µM
- TGI (HS 578T breast): > 100 µM
- TGI (HT29 colon): > 100 µM
- TGI (IGROV1 ovarian): > 100 µM
- TGI (K-562 leukemia): > 100 µM
- TGI (KM12 colon): > 100 µM
- TGI (LOX IMVI melanoma): > 100 µM
- TGI (M14 melanoma): > 100 µM
- TGI (MALME-3M melanoma): > 100 µM
- TGI (MCF7 breast): > 100 µM
- TGI (MDA-MB-231 breast): > 100 µM
- TGI (MDA-MB-435): > 100 µM
- TGI (MOLT-4 leukemia): > 100 µM
- TGI (NCI-H23 lung): > 100 µM
- TGI (NCI-H460 lung): > 100 µM
- TGI (NCI-H522 lung): > 100 µM
- TGI (NCI/ADR-RES ovarian): > 100 µM
- TGI (OVCAR-3 ovarian): > 100 µM
- TGI (OVCAR-4 ovarian): > 100 µM
- TGI (OVCAR-5 ovarian): > 100 µM
- TGI (OVCAR-8 ovarian): > 100 µM
- TGI (PC-3 prostate): > 100 µM
- TGI (RPMI-8226 leukemia): > 100 µM
- TGI (SF-268 CNS): > 100 µM
- TGI (SF-295 CNS): > 100 µM
- TGI (SF-539 CNS): > 100 µM
- TGI (SK-MEL-2 melanoma): > 100 µM
- TGI (SK-MEL-28 melanoma): > 100 µM
- TGI (SK-MEL-5 melanoma): > 100 µM
- TGI (SK-OV-3 ovarian): > 100 µM
- TGI (SN12C renal): > 100 µM
- TGI (SNB-19 CNS): > 100 µM
- TGI (SNB-75 CNS): 63.4 µM
- TGI (SR leukemia): > 100 µM
- TGI (SW-620 colon): > 100 µM
- TGI (T-47D breast): > 100 µM
- TGI (TK-10 renal): > 100 µM
- TGI (U251 CNS): > 100 µM
- TGI (UACC-257 melanoma): > 100 µM
- TGI (UACC-62 melanoma): > 100 µM
- TGI (UO-31 renal): > 100 µM

SMILES: Clc1ccc(/C=c2\nc(-c3ccccc3)n3c2nc2ccccc23)cc1
- TGI (786-0 renal): > 100 µM
- TGI (A498 renal): > 100 µM
- TGI (A549 NSCLC): > 100 µM
- TGI (ACHN renal): 50.6 µM
- TGI (BT-549 breast): > 100 µM
- TGI (CAKI-1 renal): > 100 µM
- TGI (CCRF-CEM leukemia): > 100 µM
- TGI (COLO 205 colon): > 100 µM
- TGI (DU-145 prostate): > 100 µM
- TGI (EKVX NSCLC): 71.4 µM
- TGI (HCT-116 colon): > 100 µM
- TGI (HCT-15 colon): > 100 µM
- TGI (HL-60(TB) leukemia): > 100 µM
- TGI (HOP-62 NSCLC): > 100 µM
- TGI (HOP-92 NSCLC): > 100 µM
- TGI (HS 578T breast): > 100 µM
- TGI (HT29 colon): > 100 µM
- TGI (IGROV1 ovarian): > 100 µM
- TGI (K-562 leukemia): > 100 µM
- TGI (KM12 colon): > 100 µM
- TGI (LOX IMVI melanoma): > 100 µM
- TGI (M14 melanoma): > 100 µM
- TGI (MALME-3M melanoma): > 100 µM
- TGI (MCF7 breast): > 100 µM
- TGI (MDA-MB-231 breast): > 100 µM
- TGI (MDA-MB-435): > 100 µM
- TGI (MOLT-4 leukemia): > 100 µM
- TGI (NCI-H226 lung): > 100 µM
- TGI (NCI-H23 lung): > 100 µM
- TGI (NCI-H460 lung): > 100 µM
- TGI (NCI/ADR-RES ovarian): > 100 µM
- TGI (OVCAR-3 ovarian): > 100 µM
- TGI (OVCAR-4 ovarian): > 100 µM
- TGI (OVCAR-5 ovarian): > 100 µM
- TGI (OVCAR-8 ovarian): > 100 µM
- TGI (PC-3 prostate): 87.8 µM
- TGI (RPMI-8226 leukemia): > 100 µM
- TGI (RXF 393 renal): > 100 µM
- TGI (SF-268 CNS): > 100 µM
- TGI (SF-295 CNS): > 100 µM
- TGI (SF-539 CNS): 52.2 µM
- TGI (SK-MEL-2 melanoma): > 100 µM
- TGI (SK-MEL-28 melanoma): 0.952 µM
- TGI (SK-MEL-5 melanoma): > 100 µM
- TGI (SK-OV-3 ovarian): > 100 µM
- TGI (SN12C renal): > 100 µM
- TGI (SNB-19 CNS): > 100 µM
- TGI (SR leukemia): > 100 µM
- TGI (SW-620 colon): > 100 µM
- TGI (TK-10 renal): > 100 µM
- TGI (U251 CNS): > 100 µM
- TGI (UACC-257 melanoma): > 100 µM
- TGI (UACC-62 melanoma): > 100 µM
- TGI (UO-31 renal): > 100 µM

SMILES: C=C(C)[C@@H]1CC[C@]2(C)[C@H](CC=C3[C@@H]4CC(C)(C)CC[C@]4(CO)CC[C@]32C)[C@@]1(C)CCCN
- GI50 (A498 renal): 1.49 µM
- TGI (A498 renal): 2.81 µM
- GI50 (CAKI-1 renal): 1.73 µM
- TGI (CAKI-1 renal): 3.1 µM
- GI50 (K-562 leukemia): 2.17 µM
- TGI (K-562 leukemia): 8.26 µM
- GI50 (M14 melanoma): 1.65 µM
- TGI (M14 melanoma): 3.1 µM
- GI50 (MALME-3M melanoma): 1.55 µM
- TGI (MALME-3M melanoma): 2.96 µM
- GI50 (MDA-MB-435): 1.62 µM
- TGI (MDA-MB-435): 2.98 µM
- GI50 (NCI-H226 lung): 5.31 µM
- TGI (NCI-H226 lung): 27.7 µM
- GI50 (SF-539 CNS): 1.65 µM
- TGI (SF-539 CNS): 3.02 µM
- GI50 (SK-MEL-2 melanoma): 1.98 µM
- TGI (SK-MEL-2 melanoma): 3.58 µM
- GI50 (SK-MEL-5 melanoma): 1.68 µM
- TGI (SK-MEL-5 melanoma): 3.05 µM
- GI50 (SK-OV-3 ovarian): 1.88 µM
- TGI (SK-OV-3 ovarian): 3.33 µM
- GI50 (UACC-62 melanoma): 1.68 µM
- TGI (UACC-62 melanoma): 3.05 µM

SMILES: CSc1n[nH]c2c1c(C)nn2-c1ccccc1
- TGI (A549 NSCLC): > 100 µM
- TGI (BT-549 breast): > 100 µM
- TGI (EKVX NSCLC): > 100 µM
- TGI (HCC-2998 colon): > 100 µM
- TGI (HCT-15 colon): > 100 µM
- TGI (HL-60(TB) leukemia): > 100 µM
- TGI (HOP-92 NSCLC): > 100 µM
- TGI (HT29 colon): > 100 µM
- TGI (IGROV1 ovarian): > 100 µM
- TGI (K-562 leukemia): > 100 µM
- TGI (M14 melanoma): > 100 µM
- TGI (MCF7 breast): > 100 µM
- TGI (MDA-MB-435): > 100 µM
- TGI (MOLT-4 leukemia): > 100 µM
- TGI (NCI-H226 lung): > 100 µM
- TGI (NCI-H23 lung): > 100 µM
- TGI (NCI-H460 lung): > 100 µM
- TGI (OVCAR-3 ovarian): > 100 µM
- TGI (OVCAR-4 ovarian): > 100 µM
- TGI (OVCAR-5 ovarian): > 100 µM
- TGI (PC-3 prostate): > 100 µM
- TGI (RPMI-8226 leukemia): > 100 µM
- TGI (RXF 393 renal): > 100 µM
- TGI (SF-539 CNS): > 100 µM
- TGI (SK-MEL-2 melanoma): > 100 µM
- TGI (SK-MEL-28 melanoma): > 100 µM
- TGI (SK-MEL-5 melanoma): > 100 µM
- TGI (SK-OV-3 ovarian): > 100 µM
- TGI (SNB-19 CNS): > 100 µM
- TGI (SR leukemia): > 100 µM
- TGI (SW-620 colon): > 100 µM
- TGI (TK-10 renal): > 100 µM
- TGI (U251 CNS): > 100 µM
- TGI (UACC-257 melanoma): > 100 µM
- TGI (UACC-62 melanoma): > 100 µM
- TGI (UO-31 renal): > 100 µM
